Reference: patent US20240238367A1, “COMPOUNDS FOR TREATING CONDITIONS RELATED TO PCSK9 ACTIVITY” (MERCK SHARP & DOHME LLC, priority 2021, published 2024)
Like-named read-outs stand apart in the source and are kept apart here.

How the values were obtained:
[1] = rats; co-administration with permeation enhancer (Labrasol, sodium caprate)
LDL-C [2] = settings: hard gelatin capsule, 5 mg plus 180 mg sodium caprate, participants taking statins
[3] = once daily for 14 days
Experimental: (§3) Standard takeaway meals were provided to participants to consume no less than 30 minutes after receiving their once daily dose. In addition to standard safety monitoring, including vital signs, ECG and laboratory safety tests, plasma lipids (total cholesterol, LDL-C, HDL-C and TG) were measured. LDL-C was monitored as part of the safety labs.

free PCSK9 = biological target: T1, free PCSK9 (Homo sapiens, UniProt Q8NBP7); assay: single dose study: reduction of free plasma PCSK9 from baseline (target engagement); type: in vivo
T1 construct: reduction in plasma levels of free PCSK9 protein; from tissue; host or cells: plasma of healthy human volunteers (in vivo, endogenous)

[4] = Text: (§1) Evaluation of pharmacokinetics, pharmacodynamics (reduction of free PCSK9 from baseline) and safety and tolerability of single doses of the compound of formula (I) were studied in normal healthy male volunteers aged 18-50. […] Additionally, this trial examined the effect of permeation enhancer dose on PK, the effect of food on PK, and the effect of various capsule formulations on PK. The pharmacodynamic endpoint measured in this study was target engagement (% change in free PCSK9).
(§2) The capsules were over-encapsulated with enteric capsules (HPMC Vcaps® Enteric, Capsugel®, Lonza).

[5] = nonhuman primates; subcutaneous dosing plus oral arms; up to/including highest doses administered
human PCSK9 = human PCSK9 (Homo sapiens, UniProt Q8NBP7)
[6] = stability of amorphous salt forms, impurity levels (FIG. 5); type: physicochemical; settings: chloride salt made with HCl acidification step, risk of excess HCl
[7] = non-human primates; co-administration with permeation enhancer (Labrasol, sodium caprate)
[8] = single dose study: safety and tolerability
Text: as §1, §2

[9] = rats; subcutaneous dosing plus oral arms; up to/including highest doses administered
LDL-C [10] = assay: multiple dose study: LDL-C reduction in participants on statin background therapy
Experimental: as §3
Blood LDL-cholesterol levels were measured using standard clinical laboratory testing procedures predose and on day 3, 7, 14, 15 and 21 after dosing.

LDL-C [11] = settings: phase 3 lipid trials, N Engl J Med 2020; cited from earlier work
LDL-C [12] = settings: ODYSSEY, N Engl J Med 2018; cited from earlier work
LDL-C [13] = settings: FOURIER, N Engl J Med 2017; cited from earlier work
[14] = Panel A 200 mg no PE (permeation enhancer)
[15] = Panel B 120 mg with 720 mg Labrasol
[16] = Panel C 40 mg with 720 mg Na Caprate
[17] = Panel C 100 mg with 1800 mg Na caprate
[18] = single oral doses 10 to 300 mg, healthy male volunteers

T1 sequence (Q8NBP7 153-692): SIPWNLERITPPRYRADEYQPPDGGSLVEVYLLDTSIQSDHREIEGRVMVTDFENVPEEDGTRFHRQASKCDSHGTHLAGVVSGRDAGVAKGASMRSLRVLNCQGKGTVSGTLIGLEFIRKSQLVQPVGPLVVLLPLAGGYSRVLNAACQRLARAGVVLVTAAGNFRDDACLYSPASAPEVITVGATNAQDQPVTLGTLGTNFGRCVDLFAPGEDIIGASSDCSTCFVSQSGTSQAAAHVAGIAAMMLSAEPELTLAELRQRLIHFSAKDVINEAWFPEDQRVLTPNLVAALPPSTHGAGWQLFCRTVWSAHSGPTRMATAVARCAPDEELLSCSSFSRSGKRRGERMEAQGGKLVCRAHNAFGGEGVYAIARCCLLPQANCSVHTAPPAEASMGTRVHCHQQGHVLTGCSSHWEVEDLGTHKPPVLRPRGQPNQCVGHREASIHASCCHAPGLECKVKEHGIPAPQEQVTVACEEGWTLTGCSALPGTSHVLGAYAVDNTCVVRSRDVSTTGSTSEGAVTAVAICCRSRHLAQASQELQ
T1 sequence (Q8NBP7 31-152 partner limits assumed): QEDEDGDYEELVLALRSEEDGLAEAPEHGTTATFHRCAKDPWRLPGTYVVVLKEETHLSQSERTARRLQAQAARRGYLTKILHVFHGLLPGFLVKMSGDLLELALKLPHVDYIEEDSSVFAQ
Sequence of human PCSK9 (Q8NBP7 153-692): as the sequence (Q8NBP7 153-692) above

COc1ccc(C[C@@H]2NC(=O)[C@H]([C@@H](C)O)NC(=O)[C@@H]3[C@@H]4CCN3C(=O)[C@@H]3Cc5cn(c6ccc(F)cc56)CCCCCCN(Cc5ccc(cc5)CCNC(=O)[C@]5(C)CCCN5C2=O)C(=O)CCC(=O)N[C@@H](C)C(=O)N[C@H](CNC(=O)CCCCC[N+](C)(C)C)C(=O)N[C@@H](Cc2cccc(c2)CNC(=O)CO4)C(=O)N3)cc1.[Cl-] [Compound 1]
GI absorption [1]: improved | % LDL-C reduction from baseline (LDL-C [2]): < 50% | PK of 10 mg plus 180 mg sodium caprate versus 10 mg plus 360 mg sodium caprate [3]: similar | GM Maximum Percent Target Reduction From Baseline of Free PCSK9 (free PCSK9; Panel A 10 mg single dose): 93.32% | Posterior Probability of True GM Free PCSK9 Maximum Percent Reduction ≥80% (free PCSK9; Panel A 10 mg single dose): >0.99 | GM Maximum Percent Target Reduction From Baseline of Free PCSK9 (free PCSK9; [14]): 96.83% | Posterior Probability of True GM Free PCSK9 Maximum Percent Reduction ≥80% (free PCSK9; [14]): >0.99 | GM Maximum Percent Target Reduction From Baseline of Free PCSK9 (free PCSK9; Panel A 200 mg single dose): 99.46% | Posterior Probability of True GM Free PCSK9 Maximum Percent Reduction ≥80% (free PCSK9; Panel A 200 mg single dose): >0.99 | GM Maximum Percent Target Reduction From Baseline of Free PCSK9 (free PCSK9; Panel B 35 mg single dose): 98.72% | Posterior Probability of True GM Free PCSK9 Maximum Percent Reduction ≥80% (free PCSK9; Panel B 35 mg single dose): >0.99 | GM Maximum Percent Target Reduction From Baseline of Free PCSK9 (free PCSK9; [15]): 99.43% | Posterior Probability of True GM Free PCSK9 Maximum Percent Reduction ≥80% (free PCSK9; [15]): >0.99 | GM Maximum Percent Target Reduction From Baseline of Free PCSK9 (free PCSK9; Panel B 300 mg single dose): 99.68% | Posterior Probability of True GM Free PCSK9 Maximum Percent Reduction ≥80% (free PCSK9; Panel B 300 mg single dose): >0.99 | GM Maximum Percent Target Reduction From Baseline of Free PCSK9 (free PCSK9; [16]): 97.94% | Posterior Probability of True GM Free PCSK9 Maximum Percent Reduction ≥80% (free PCSK9; [16]): >0.99 | GM Maximum Percent Target Reduction From Baseline of Free PCSK9 (free PCSK9; Panel C 100 mg single dose): 99.36% | Posterior Probability of True GM Free PCSK9 Maximum Percent Reduction ≥80% (free PCSK9; Panel C 100 mg single dose): >0.99 | GM Maximum Percent Target Reduction From Baseline of Free PCSK9 (free PCSK9; [17]): 99.18% | Posterior Probability of True GM Free PCSK9 Maximum Percent Reduction ≥80% (free PCSK9; [17]): >0.99 | effect of food on plasma exposure ([4]; food consumed 30 minutes after the dose): negligible effect | effect of food on plasma exposure ([4]; food consumed 30 minutes before dosing, compared to fasted): lower plasma exposure | PK in the presence of Labrasol versus sodium caprate ([4]; single dose): similar | effect of permeation enhancers on absorption (Cmax and AUC0-24) ([4]; single dose, with vs without permeation enhancer): improve absorption | plasma exposure versus dose ([4]; single oral doses 10 to 300 mg): dose dependent increase | adverse effects in GLP toxicity study [5]: no adverse effects were observed | binding affinity against human PCSK9 (human PCSK9): picomolar | stability / impurity levels of amorphous salt [6]: higher impurity levels | GI absorption [7]: improved | adverse events related to Compound 1 reported by the Investigator [8, 18]: abdominal discomfort, diarrhea, dyspepsia, headache, and maculopapular rash | deaths or severe adverse events (SAEs) [8, 18]: no death or severe adverse events | tolerability ([8]; single oral doses up to 300 mg, healthy male volunteers): well tolerated | severity of treatment-related AEs ([8]; single oral doses, exception of one participant with severe back pain, not dose-related): mild/moderate | adverse effects in GLP toxicity study [9]: no adverse effects were observed | mean reduction of LDL-C (LDL-C [10]; 10 mg plus 180 mg sodium caprate, once daily for 14 days, statin background): approximately 60% | mean reduction of LDL-C (LDL-C [10]; 10 mg plus 360 mg sodium caprate, once daily for 14 days, statin background): approximately 64% | mean reduction of plasma LDL-C (LDL-C [10]; 20 mg plus 360 mg sodium caprate, once daily for 14 days, statin background): approximately 62%

COc1ccc(C[C@@H]2NC(=O)[C@H]([C@@H](C)O)NC(=O)[C@@H]3[C@@H]4CCN3C(=O)[C@@H]3Cc5cn(c6ccc(F)cc56)CCCCCCN(Cc5ccc(cc5)CCNC(=O)[C@]5(C)CCCN5C2=O)C(=O)CCC(=O)N[C@@H](C)C(=O)N[C@H](CNC(=O)CCCCC[N+](C)(C)C)C(=O)N[C@@H](Cc2cccc(c2)CNC(=O)CO4)C(=O)N3)cc1 [Compound 3]
stability / impurity levels of amorphous salt [6]: demonstrate stability

COc1ccc(C[C@@H]2NC(=O)[C@H]([C@@H](C)O)NC(=O)[C@@H]3[C@@H]4CCN3C(=O)[C@@H]3Cc5cn(c6ccc(F)cc56)CCCCCCN(Cc5ccc(cc5)CCNC(=O)[C@]5(C)CCCN5C2=O)C(=O)CCC(=O)N[C@@H](C)C(=O)N[C@H](CNC(=O)CCCCC[N+](C)(C)C)C(=O)N[C@@H](Cc2cccc(c2)CNC(=O)CO4)C(=O)N3)cc1 [compound of formula (I)]
mean maximum reduction of free plasma PCSK9 levels from baseline (free PCSK9; single doses, all dose levels studied): more than 90% | tolerability ([8]; single and multiple oral doses in healthy volunteers): generally well tolerated | lowering of LDL-cholesterol in the blood from baseline (LDL-C [10]; 14 days of once daily oral dosing, background of moderate-to-high intensity statin therapy): approximately 65%

Inclisiran
reduction in LDL-C (LDL-C [11]): 49-52%

Praluent: anti-PCSK9 monoclonal antibody
reduction in LDL-C (LDL-C [12]): 59%

B1: Repatha: anti-PCSK9 monoclonal antibody (antibody, chains of the INN, looked up, V domains shown)
VH: EVQLVQSGAEVKKPGASVKVSCKASGYTLTSYGISWVRQAPGQGLEWMGWVSFYNGNTNYAQKLQGRGTMTTDPSTSTAYMELRSLRSDDTAVYYCARGYGMDVWGQGTTVTVSS
VL: ESALTQPASVSGSPGQSITISCTGTSSDVGGYNSVSWYQQHPGKAPKLMIYEVSNRPSGVSNRFSGSKSGNTASLTISGLQAEDEADYYCNSYTSTSMVFGGGTKLTVL
reduction in LDL-C (LDL-C [13]): 59%
